Target: PI-3 kinase γ (Homo sapiens, UniProt P48736)
Assay: PI3Kγ inhibitory activity, PI3-kinase HTRF assay (inhibition ratio)
Assay type: biochemical
Conditions: 0.5 h, compound at 50 μmol/L
Protocol: For each compound synthesized in the above Examples, PI3Kγ inhibitory activity was measured.
The PI3Kγ inhibitory activity of a compound was evaluated using PI3-kinase HTRF™ assay (Millipore) according to the following procedure:
To each well of a testing plate, 5 μL of a compound solution containing 10% DMSO (200 μmol/L or 40 μmol/L as the concentration of the compound), 5 μL of a substrate solution (40 μmol/L phosphatidylinositol (4,5)-bisphosphate, 20 mmol/L MgCl2, 10 mmol/L DTT), and 5 μL of a enzyme solution (80 μg/mL PI-3 kinase γ, 10 mmol/L MgCl2, 5 mmol/L DTT) were added, and then allowed to stand for 10 minutes.
Then, 5 μL of a reaction solution (40 μmol/L ATP, 10 mmol/L MgCl2, 5 mmol/L DTT) was added thereto. After reacting for 30 minutes at room temperature, 5 μL of a solution containing EDTA and biotinylated phosphatidylinositol (3,4,5)-triphosphate were added to quench the reaction.
5 μL of a detection reagent containing a europium-labeled anti-GST antibody, the GST-tagged PH domain, and allophycocyanin-labeled streptavidin was added thereto. After 18 hours, HTRF (excitation wavelength: 330 nm, measured wavelengths: 620 nm and 665 nm) was measured.
HTRF ratio was defined as the value obtained by dividing the amount of fluorescence obtained at the measured wavelength 665 nm by the amount of fluorescence obtained at 620 nm. The HTRF ratio in the absence of a compound was defined as 100% activity and the HTRF ratio in the absence of PI-3 kinase γ was defined as 0% activity to calculate an inhibition ratio which was defined as the PI3Kγ inhibitory activity of a compound at 50 μmol/L or 10 μmol/L.

Chain of PI-3 kinase γ (P48736 whole entry): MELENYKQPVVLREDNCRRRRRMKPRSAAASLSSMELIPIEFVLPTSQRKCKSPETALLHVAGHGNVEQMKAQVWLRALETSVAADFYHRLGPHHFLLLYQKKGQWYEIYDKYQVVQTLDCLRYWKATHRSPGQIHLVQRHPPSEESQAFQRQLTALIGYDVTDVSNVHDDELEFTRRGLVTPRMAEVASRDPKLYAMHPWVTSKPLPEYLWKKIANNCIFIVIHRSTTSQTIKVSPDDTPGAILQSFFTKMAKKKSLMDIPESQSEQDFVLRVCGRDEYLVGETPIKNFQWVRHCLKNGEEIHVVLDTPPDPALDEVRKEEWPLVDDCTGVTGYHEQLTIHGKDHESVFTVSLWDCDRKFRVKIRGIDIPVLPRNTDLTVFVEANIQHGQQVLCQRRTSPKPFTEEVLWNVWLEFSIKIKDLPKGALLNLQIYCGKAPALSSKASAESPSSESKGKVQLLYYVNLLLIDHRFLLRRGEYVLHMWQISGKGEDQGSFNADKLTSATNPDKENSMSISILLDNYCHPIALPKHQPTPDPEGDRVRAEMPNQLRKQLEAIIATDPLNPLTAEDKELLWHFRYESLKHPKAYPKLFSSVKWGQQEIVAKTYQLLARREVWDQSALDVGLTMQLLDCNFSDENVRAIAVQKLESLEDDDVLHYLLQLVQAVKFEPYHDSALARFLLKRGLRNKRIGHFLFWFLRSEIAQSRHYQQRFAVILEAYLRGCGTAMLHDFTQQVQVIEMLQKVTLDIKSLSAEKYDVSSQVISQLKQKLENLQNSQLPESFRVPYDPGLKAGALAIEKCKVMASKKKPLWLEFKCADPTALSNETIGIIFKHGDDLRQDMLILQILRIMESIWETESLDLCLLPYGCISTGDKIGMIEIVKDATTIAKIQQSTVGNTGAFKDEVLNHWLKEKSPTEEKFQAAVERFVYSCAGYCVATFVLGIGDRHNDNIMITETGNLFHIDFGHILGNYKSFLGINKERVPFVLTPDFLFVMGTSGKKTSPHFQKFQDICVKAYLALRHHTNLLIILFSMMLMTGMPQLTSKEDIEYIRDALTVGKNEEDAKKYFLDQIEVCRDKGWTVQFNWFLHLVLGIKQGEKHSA

SMILES | inhibition at 50 µM [%]
O=C(Nc1ccccc1)N1CCOc2cccnc21 [Compound I-2] | 89
C=CCC1(C)SC(N2CCOc3cccnc32)=NC1=O (stereo not shown) [Compound I-3] | 80
CC1(Cc2ccccc2)SC(N2CCOc3cccnc32)=NC1=O (stereo not shown) [Compound I-4] | 84
S=C(Nc1cccnc1)N1CCOc2cccnc21 [Compound I-5] | 90
CC1(C/C=C/c2ccccc2)SC(N2CCOc3cccnc32)=NC1=O (stereo not shown) [Compound I-6] | 81
C#CCC1(C)SC(N2CCOc3cccnc32)=NC1=O (stereo not shown) [Compound I-7] | 75
O=C(NC1CCCCC1)N1CCOc2cccnc21 [Compound I-17] | 88
CC(NC(=O)c1ccc2c(n1)N(C(=O)Nc1ccccc1)CCO2)C(=O)O (stereo not shown) [Compound I-38] | 76
O=C(O)c1ccc(NC(=O)c2ccc3c(n2)N(C(=O)Nc2ccccc2)CCO3)cc1 [Compound I-40] | 80
O=C(O)c1ccc(-c2ccc3c(n2)N(C(=O)Nc2ccccc2)CCO3)cc1 [Compound I-51] | 93
O=C(Nc1ccccc1)N1CCOc2ccc(/C=C/c3ccccc3)nc21 [Compound I-60] | 74
NC(=O)c1ccc(-c2ccc3c(n2)N(C(=O)Nc2ccccc2)CCO3)cc1 [Compound I-69] | 73
CNC(=O)c1ccc(-c2ccc3c(n2)N(C(=O)Nc2ccccc2)CCO3)cc1 [Compound I-70] | 71
CN1CCOc2cc(-c3ccc4c(n3)N(C(=O)Nc3ccccc3)CCO4)ccc21 [Compound I-77] | 82
O=C(Nc1ccccc1)N1CCOc2ccc(-c3nccs3)nc21 [Compound I-83] | 92
O=C(Nc1ccccc1)N1CCOc2ccc(-c3ncco3)nc21 [Compound I-84] | 72
O=C(Nc1ccccc1)N1CCOc2ccc(C3CCCCC3)nc21 [Compound I-86] | 82
O=C(Nc1ccccc1)N1CCOc2ccc(Cc3ccccc3)nc21 [Compound I-87] | 75
CC(C)CCc1ccc2c(n1)N(C(=O)Nc1ccccc1)CCO2 [Compound I-88] | 91
CCOC(=O)CCCc1ccc2c(n1)N(C(=O)Nc1ccccc1)CCO2 [Compound I-89] | ≥ 95
CCCc1ccc2c(n1)N(C(=O)Nc1ccccc1)CCO2 [Compound I-90] | 72

SMILES | inhibition at 50 µM [%]
CCOC(=O)CCc1ccc2c(n1)N(C(=O)Nc1ccccc1)CCO2 [Compound I-92] | ≥ 95
O=C(O)CCc1ccc2c(n1)N(C(=O)Nc1ccccc1)CCO2 [Compound I-94] | ≥ 95
O=C(O)CCCc1ccc2c(n1)N(C(=O)Nc1ccccc1)CCO2 [Compound I-95] | ≥ 95
O=C(Nc1ccccc1)N1CCOc2ccc(-c3ccc(CO)cc3)nc21 [Compound I-97] | 89
COc1ccc(-c2ccc3c(n2)N(C(=O)Nc2ccccc2)CCO3)cc1 [Compound I-98] | 73
COc1ccc(-c2ccc3c(n2)N(C(=O)Nc2ccccc2)CCO3)cc1OC [Compound I-99] | ≥ 95
Cc1noc(C)c1-c1ccc2c(n1)N(C(=O)Nc1ccccc1)CCO2 [Compound I-100] | ≥ 95
O=C(Nc1ccccc1)N1CCOc2ccc(-c3ccoc3)nc21 [Compound I-101] | ≥ 95
O=C(Nc1ccccc1)N1CCOc2ccc(-c3cccnc3)nc21 [Compound I-102] | 94
COC(=O)c1cccc(-c2ccc3c(n2)N(C(=O)Nc2ccccc2)CCO3)c1 [Compound I-103] | 94
O=C(O)c1cccc(-c2ccc3c(n2)N(C(=O)Nc2ccccc2)CCO3)c1 [Compound I-104] | ≥ 95
O=C(Nc1ccccc1)N1CCOc2ccc(-c3cncnc3)nc21 [Compound I-106] | ≥ 95
O=C(Nc1ccccc1)N1CCOc2ccc(-c3ccncc3)nc21 [Compound I-107] | ≥ 95
Nc1ccc2c(n1)N(C(=O)Nc1ccccc1)CCO2 [Compound I-108] | 88
O=C(O)c1ccc(-c2cnc3c(c2)OCCN3C(=O)Nc2ccccc2)cc1 [Compound I-111] | 87
NCCOc1ccc(C(=O)O)cc1NC(=O)c1ccc2c(n1)N(C(=O)Nc1ccccc1)CCO2 [Compound I-118] | ≥ 95
CCOC(=O)CC(=O)Nc1ccc2c(n1)N(C(=O)Nc1ccccc1)CCO2 [Compound I-122] | 87
O=C(O)CC(=O)Nc1ccc2c(n1)N(C(=O)Nc1ccccc1)CCO2 [Compound I-123] | ≥ 95
O=C(O)c1cccc(C(=O)Nc2ccc3c(n2)N(C(=O)Nc2ccccc2)CCO3)c1 [Compound I-124] | 76
O=C(O)c1ccc(C(=O)Nc2ccc3c(n2)N(C(=O)Nc2ccccc2)CCO3)cc1 [Compound I-125] | ≥ 95
O=C(O)c1cccc(NC(=O)c2ccc3c(n2)N(C(=O)Nc2ccccc2)CCO3)c1 [Compound I-126] | ≥ 95

SMILES | inhibition at 50 µM [%]
NCCOc1ccccc1NC(=O)c1ccc2c(n1)N(C(=O)Nc1ccccc1)CCO2 [Compound I-130] | ≥ 95
O=C(Nc1ccccc1)N1CCOc2cc(NCc3ccccc3)cnc21 [Compound I-131] | ≥ 95
O=C(Nc1ccccc1)N1CCOc2cc(Nc3ccccc3)cnc21 [Compound I-132] | 83
O=C(O)c1ccccc1Nc1cnc2c(c1)OCCN2C(=O)Nc1ccccc1 [Compound I-137] | ≥ 95
COC(=O)c1ccccc1Nc1ccc2c(n1)N(C(=O)Nc1ccccc1)CCO2 [Compound I-141] | 82
CC(C)(C)OC(=O)c1cccc(Nc2ccc3c(n2)N(C(=O)Nc2ccccc2)CCO3)c1 [Compound I-142] | 78
CC(C)(C)OC(=O)c1ccc(Nc2ccc3c(n2)N(C(=O)Nc2ccccc2)CCO3)cc1 [Compound I-143] | ≥ 95
O=C(Nc1ccccc1)N1CCOc2ccc(Nc3ccccc3)nc21 [Compound I-144] | 81
O=C(O)c1cccc(Nc2ccc3c(n2)N(C(=O)Nc2ccccc2)CCO3)c1 [Compound I-147] | ≥ 95
Nc1cnc2c(c1)OCCN2C(=O)Nc1ccccc1 [Compound I-148] | 94
O=C(O)Cc1cccc(-c2ccc3c(n2)N(C(=O)Nc2ccccc2)CCO3)c1 [Compound I-152] | ≥ 95
CC(C)(C)OC(=O)CC(=O)Nc1cnc2c(c1)OCCN2C(=O)Nc1ccccc1 [Compound I-160] | 75
O=C(O)CC(=O)Nc1cnc2c(c1)OCCN2C(=O)Nc1ccccc1 [Compound I-161] | 88
CC(=O)Nc1cnc2c(c1)OCCN2C(=O)Nc1ccccc1 [Compound I-173] | ≥ 95
CC(=O)Nc1ccc2c(n1)N(C(=O)Nc1ccccc1)CCO2 [Compound I-174] | 79
COCOc1ccc(C(=O)OC)cc1Nc1ccc2c(n1)N(C(=O)Nc1ccccc1)CCO2 [Compound I-179] | 79
O=C(Nc1ccccc1)N1CCOc2ccc(Nc3ccccn3)nc21 [Compound I-180] | ≥ 95
O=C(Nc1ccccc1)N1CCOc2ccc(Nc3cccnc3)nc21 [Compound I-181] | ≥ 95
O=C(Nc1ccccc1)N1CCOc2ccc(Nc3ccncc3)nc21 [Compound I-182] | ≥ 95
